Data reported in US20240317722A1, “HETEROARYL-3-PIPERIDINEDIONE COMPOUND AND USE THEREOF” (Medshine Discovery Inc., priority 2021, published 2024).
pIC50: −log10 of the molar value.

Columns and labels:
Assay type in all cases: cell-based
[1] = tested on: DMS114; assay: Anti-proliferative effect in DMS114 (CellTiter-Glo); conditions: DMS114, 3 days; for pIC50: Homo sapiens, DMS-114, 72 h
Experimental: (§1) This assay studied the inhibitory effect of the compounds on cell proliferation by detecting the effect of the test compounds on the in vitro activity of tumor cells NCI-H1581, DMS114, NCI-H69 and NCI-H526.
(§2) The tumor cell lines were cultured in an incubator at 37° C., 5% CO2 or 0% CO2 according to the above culture conditions. The cells were periodically passaged, and cells in logarithmic growth phase were taken for plating. • 2. Cell plating • (1). Cells were stained with trypan blue and viable cells were counted.
(§3) • (3). 100 μL of cell suspension was added to each well of the culture plate, and culture medium without cells was added to the blank control well. • (4). The plate was incubated overnight in an incubator at 37° C., 5% CO2 or 0% CO2, and 100% relative humidity. • 3. Preparation of compound stock solution
(§4) Preparation of 1000× compound stock solution: Compound was dissolved in DMSO to 10 mM, then a portion was taken out and diluted to 1000 times the highest acting concentration. The diluted stock solution was dispensed for later use. • 4. Preparation of 5× compound working solution and treatment of cells with compounds. The working solutions were prepared freshly at each time for use. • (1). Preparation of 5× compound working solution: 119.4 μL of cell culture medium was added to a 96-well plate with a V-shaped bottom. 96 μL of DMSO-cell culture medium mix solution (with DMSO content of 0.5%) was added to subsequent gradient wells. 0.6 μL of the compound from the 1000× compound stock solution was added to the cell culture medium in the 96-well plate, and mixed to uniform with a pipette. A pipette was used to draw 24 μL of the compound-cell culture medium mixture into subsequent wells, and the mixture was mixed well by a pipette each time. • (2). Dosing: 25 μL of 5× compound working solution was added to the cell culture plate. 25 μL of DMSO-cell culture medium mix solution (with DMSO content of 0.5%) was added to the vehicle control and blank control. • (3). The 96-well cell plate was placed back into the incubator and cultured for 3 days. • 5. CellTiter-Glo luminescence cell viability detection
(§5) The following steps were performed according to the instruction of Promega CellTiter-Glo luminescence cell viability detection kit (Promega-G7573). • (1). The CellTiter-Glo buffer was thawed and allowed to stand to reach room temperature; • (2). CellTiter-Glo substrate was allowed to stand to reach room temperature; • (3). 10 mL of CellTiter-Glo buffer was added to CellTiter-Glo substrate in a bottle to dissolve the substrate to formulate CellTiter-Glo working solution; • (4). […] The culture plates were left at room temperature for 10 minutes to stabilize the luminescence signal; • (9). The luminous signal was detected on the 2104 En Vision plate reader. • 6. […]

[2] = tested on: NCI-H1581; assay: Anti-proliferative effect in NCI-H1581 (CellTiter-Glo); conditions: NCI-H1581, 3 days; for pIC50: Homo sapiens, 72 h
Experimental: as §1, §2, §3, §4, §5

[3] = target: GSPT1 (Homo sapiens, UniProt P15170+Q96SW2); assay: Target protein degradation in HEK293T-LgBiT_GSPT1-nHiBiT cells (HiBiT luminescence); parameters: expressed in transfected cells; conditions: 16 to 18 hours; for Dmax: read-out: Max. DR (maximum degradation rate)
Sequence of GSPT1 (P15170 whole entry): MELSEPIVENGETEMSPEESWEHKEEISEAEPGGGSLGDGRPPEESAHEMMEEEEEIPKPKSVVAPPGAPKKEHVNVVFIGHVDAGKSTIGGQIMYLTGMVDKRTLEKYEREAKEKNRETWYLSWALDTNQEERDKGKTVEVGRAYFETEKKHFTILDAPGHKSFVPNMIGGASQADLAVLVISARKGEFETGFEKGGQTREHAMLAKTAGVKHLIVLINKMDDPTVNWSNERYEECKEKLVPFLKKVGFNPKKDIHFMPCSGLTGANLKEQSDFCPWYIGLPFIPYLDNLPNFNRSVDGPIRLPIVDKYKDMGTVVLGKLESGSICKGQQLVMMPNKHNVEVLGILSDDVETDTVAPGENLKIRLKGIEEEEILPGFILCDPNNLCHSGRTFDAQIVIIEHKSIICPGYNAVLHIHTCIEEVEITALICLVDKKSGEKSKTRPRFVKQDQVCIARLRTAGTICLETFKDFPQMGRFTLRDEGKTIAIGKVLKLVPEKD
Sequence of GSPT1 (Q96SW2 whole entry): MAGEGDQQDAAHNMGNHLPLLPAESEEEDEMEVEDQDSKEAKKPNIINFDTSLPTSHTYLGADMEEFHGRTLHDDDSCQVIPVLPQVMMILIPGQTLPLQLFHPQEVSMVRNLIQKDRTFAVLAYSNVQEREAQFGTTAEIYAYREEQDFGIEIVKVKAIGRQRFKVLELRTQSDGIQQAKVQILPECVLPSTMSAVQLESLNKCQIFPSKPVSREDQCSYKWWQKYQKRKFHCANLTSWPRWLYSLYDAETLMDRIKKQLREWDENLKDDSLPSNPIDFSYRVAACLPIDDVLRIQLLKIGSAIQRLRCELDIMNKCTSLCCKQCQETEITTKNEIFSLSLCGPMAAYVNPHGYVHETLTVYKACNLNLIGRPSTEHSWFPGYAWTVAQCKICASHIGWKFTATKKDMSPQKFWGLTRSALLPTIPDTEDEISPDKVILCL
Sequence of GSPT1 (Q16531 whole entry partner): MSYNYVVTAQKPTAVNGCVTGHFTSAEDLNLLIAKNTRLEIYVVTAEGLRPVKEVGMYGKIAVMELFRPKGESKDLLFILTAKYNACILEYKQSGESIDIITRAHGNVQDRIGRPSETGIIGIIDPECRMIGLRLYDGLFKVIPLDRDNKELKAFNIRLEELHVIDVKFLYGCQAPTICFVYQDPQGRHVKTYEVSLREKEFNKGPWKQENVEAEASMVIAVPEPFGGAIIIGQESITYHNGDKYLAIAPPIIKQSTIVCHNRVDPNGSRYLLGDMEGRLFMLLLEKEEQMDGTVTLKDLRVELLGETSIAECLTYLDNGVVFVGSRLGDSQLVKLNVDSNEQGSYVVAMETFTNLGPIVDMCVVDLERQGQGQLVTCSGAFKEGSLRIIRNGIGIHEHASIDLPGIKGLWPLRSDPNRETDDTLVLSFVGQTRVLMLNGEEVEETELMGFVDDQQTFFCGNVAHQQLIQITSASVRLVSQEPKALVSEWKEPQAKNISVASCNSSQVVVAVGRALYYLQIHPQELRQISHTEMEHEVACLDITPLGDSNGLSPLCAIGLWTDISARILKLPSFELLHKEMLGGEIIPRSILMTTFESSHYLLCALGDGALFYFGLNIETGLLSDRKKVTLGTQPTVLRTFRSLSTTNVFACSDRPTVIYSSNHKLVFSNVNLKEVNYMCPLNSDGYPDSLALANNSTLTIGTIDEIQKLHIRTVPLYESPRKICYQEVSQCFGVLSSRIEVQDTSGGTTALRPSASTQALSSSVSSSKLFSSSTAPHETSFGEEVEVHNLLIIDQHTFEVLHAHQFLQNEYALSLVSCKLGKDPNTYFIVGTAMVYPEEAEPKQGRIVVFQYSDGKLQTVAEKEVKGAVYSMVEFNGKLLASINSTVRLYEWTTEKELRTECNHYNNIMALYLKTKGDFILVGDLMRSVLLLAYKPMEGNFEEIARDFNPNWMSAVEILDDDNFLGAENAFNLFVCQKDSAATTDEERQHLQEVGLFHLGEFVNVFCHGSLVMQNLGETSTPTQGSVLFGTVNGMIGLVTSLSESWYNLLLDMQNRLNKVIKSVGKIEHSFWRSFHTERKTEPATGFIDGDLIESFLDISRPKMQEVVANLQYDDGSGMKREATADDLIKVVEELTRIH
Experimental: This assay was performed to detect the degradation effect of the test compound on the target protein GSPT1 in HEK293T-LgBiT cells.
• 1. Preparation of compounds • (1). Dissolving the powder of the test compound with DMSO to 10 mM as the storage concentration, and using a pipette to manually draw 9 μL of 10 mM or 3 mM test compound to columns 1 and 13 of a LDV plate; • (2). Using multidrop Combi to add 6 μL of DMSO to columns 2-12 and 14-24; • (3). Using Bravo to dilute the test compound 3 times (3 μL+6 μL) from columns 1 to 11 and 13 to 23; • (4). According to the layout of the plate, using Echo to transfer 25 nL of compound solution (columns 1-24 of the LDV plate) to the assay plate; • (5). Using Echo to transfer 25 nL of 1 mM positive control solution to the assay plate as a 100% degradation control (i.e. LC, HPE), and to transfer 25 nL of DMSO to the assay plate as a 0% control (i.e. HC, ZPE). • 2. Cell plating • (1). Discarding the cell culture medium, and washing the cells once with DPBS; then the cells were trypsinized, counted, and used to prepare a cell suspension of 4×10^5 cells/mL; • (2). Using MultiDrop Combi to add 25 μL/well of cell suspension at medium speed to the assay plate containing the test compound; • (3). Putting the assay plate containing cells back into the incubator and culturing it at 37° C. and 5% CO2 for 16 to 18 hours.
• (1). Using MultiDrop Combi to add 25 μL/well of detection reagent (NanoGlo lysis solution+substrate+LgBit protein) to the assay plate at high speed, and shaking for 10 minutes; • (2). Centrifuging at 2000 rpm×1 min to remove bubbles; • (3). Reading the plate using Envision, US Luminescence detection method.
The following formula was used to calculate the degradation rate (DR) of the test compound: DR (%)=(RLU of vehicle control−RLU of compound)/(RLU of vehicle control−RLU of positive control)*100%, wherein the vehicle control was a blank control. The degradation rates of compounds at different concentrations were calculated in Excel, and then XLFit software was used to obtain inhibition curves and to calculate relevant parameters, including the minimum degradation rate, maximum degradation rate and DC50.

COCCOc1cc(NC(=O)NCc2ccc3c(C4CCC(=O)NC4=O)noc3c2)cc(Cl)c1C (stereo not drawn) [WX013]
Max. IR [1]: 87.56% | pIC50 [1]: 8.68 | pIC50 [2]: 8.89 | Max. IR [2]: 88.62% | DC50 [3]: 1.07 nM | Dmax [3]: 100%

COCCOc1cc(NC(=O)NCc2ccc3c(C4CCC(=O)NC4=O)coc3c2)cc(Cl)c1C (stereo not drawn) [WX005]
Max. IR [1]: 89.45% | pIC50 [1]: 8.21 | pIC50 [2]: 8.28 | Max. IR [2]: 92.19% | DC50 [3]: 2.51 nM | Dmax [3]: 100%
